Patent US20180303101A1, “METHOD OF IMPROVING GRASS QUALITY” (priority 2004, published 2018)

Experiments:
Assay type in all cases: in vivo
[1] = test system: Corn; assay: Glasshouse study, soil drench applications of pigment on corn growth and photosynthesis (Example 10); settings: for Chlorophyl: CM1000 meter readings; for Total height (avg, cm): soil to youngest fully expanded leaf tip; for Distance between collars (avg, cm): two top collars; for Net photosynthesis: youngest fully collared leaf
Procedure: A glasshouse study was conducted to determine the effect of soil drench applications of phthalocyanine pigment on corn growth and photosynthesis.
Corn was grown from seed in 6 inch (15 cm) pots in a potting soil mix. Pigment Green 7 was diluted in water in the four amounts per gallon (3.8 liter) of water indicated in the Table and applied directly to the soil. Treatments were initiated in March when corn was at the three leaf stage. Approximately 250 ml of the aqueous pigment mixture was applied to the soil on day 0 and day 6. On day 21 plants were placed in trays containing the pigment Water was maintained in the trays as needed to replenished evapotranspiration.
Net photosynthesis of the youngest fully collared leaf (i.e., leaf 7) was measured using a LiCor 6400 instrument as μmol m−2s−1 of CO2. Leaf chlorophyll measurements were made using a CM1000 leaf […] meter (Spectrum Technologies). Plant height, stem diameter, and leaf width were also measured at the end of the conclusion of the study.

[2] = test system: Penncross creeping bentgrass; assay: Shoot growth rate in canopy height at high temperature treatment (Example 1); settings: plants with and without pretreatment
Description: (§1) The following test methods were used to compare the effectiveness of a phthalocyanine composition according to the invention with known compositions. The following compositions were used in the experiments: Pigment Green 7 obtained from Sun Chemical Corporation as the water-dispersible product SUN T-64-1660 (containing 45 to 55 wt. % of Pigment Green 7) was used alone. A mixture of Pigment Green 7 and fosetyl-al was used as the commercially available product Chipco® Signature™ fungicide from Bayer Environmental Science, Montvale, N.J. The compound fosetyl-al was used as Chipco® Aliette® WDG fungicide available from Bayer Environmental Science, Montvale N.J.
(§2) Seeds of “Penncross” creeping bentgrass were sown in polyvinyl chloride (PVC) tubes (10 cm in diameter and 20 cm in length) filled with coarse sand. Plants were kept in a growth chamber for 90 days before treatment stated to allow root and canopy establishment. The daily temperature in the growth chamber was 20/16° C., the photosynthetic photon flux density was 400 μmol m−2 s−1, and the photoperiod was 12 hours/day. Turf was mowed twice weekly at 4 mm with scissors, irrigated every other day until there was free drainage from the bottom of tubes, and fertilized weekly with 40 ml full-strength Hoagland's nutrient solution (Hoagland and Arnon, 1950). Insecticide was applied to kill whitefly when necessary. […]

[3] = test system: Penncross creeping bentgrass; assay: Carotenoids content at high temperature treatment (Example 1); settings: plants with or without pretreatment
Description: as §1
(§3) Seeds of “Penncross” creeping bentgrass were sown in polyvinyl chloride (PVC) tubes (10 cm in diameter and 20 cm in length) filled with coarse sand. […]
(§4) Chlorophyll and carotenoids were extracted by soaking 50 mg fresh shoots in 20 ml dimethyl sulfoxide (DMSO) in the dark for 72 hours. Absorbance of each extractant at 663 nm, 645 nm, and 470 nm was used to determine chlorophyll content using the formula of Arnon (1949) and carotenoids content using the formula of Lichtenthaler and Wellburn (1983) Canopy photochemical efficiency was estimated by measuring chlorophyll fluorescence (Fv/Fm) using plant photosynthesis efficiency analyzer (available from ADC Bioscientific Limited, Herts, England).

[4] = test system: Penncross creeping bentgrass; assay: Canopy photochemical efficiency (Fv/Fm) at high temperature treatment (Example 1); settings: plants with and without pretreatment
Description: as §1, §3, §4

[5] = test system: Penncross creeping bentgrass; assay: Final root and canopy biomass at high temperature treatment (Example 1); settings: plants with and without pretreatment, end of experiment
Description: as §1, §2

[6] = test system: Penncross creeping bentgrass; assay: Chlorophyll content at high temperature treatment (Example 1)
Description: as §1, §3, §4

[7] = test system: creeping bentgrass (variety Penncross) turf; assay: Bentgrass color rating after foliar spray (Example 2); settings: 6 weeks after treatment; 6.8, 13.9 and 20.4 grams per 1000 sq. ft.; analysis of variance
Description: Pigment Green 7 was suspended in water and applied as a foliar spray to creeping bentgrass (variety Penncross) turf with a pressurized sprayer at a spray volume of 1.37 gallons of water per 1000 sq. ft. (ca. 560 l/ha). Pigment Green 7 was applied at rates of 6.8, 13.9, and 20.4 grams per 1000 sq. ft. (0.73, 1.5, and 2.2 kg/ha, respectively). Each treatment was replicated 4 times. An untreated plot was included and was also replicated four times. The average color of the bentgrass was visually evaluated at 6 weeks after treatment. Color was evaluated on a qualitative scale from 1-9, with 9 being the highest quality and 1 the lowest quality.

[8] = test system: Penncross creeping bentgrass; assay: Tiller density at high temperature treatment (Example 1)
Description: as §1, §2

[9] = test system: creeping bentgrass (variety Penncross) turf; assay: Bentgrass color rating after foliar spray (Example 3); settings: 6 weeks after treatment; Aliette 4 oz, Signature 4 and 8 oz, Pigment 6.8 and 13.6 g per 1000 sq. ft.; analysis of variance
Procedure: Fosetyl-al (in the form of Aliette brand fungicide), fosetyl-al plus Pigment Green 7 (in the form of Signature brand Aliette fungicide), and Pigment Green 7 were separately suspended in water and applied as a foliar spray to creeping bentgrass (variety Penncross) turf with a pressurized sprayer at a spray volume of 1.37 gallons of water per 1000 sq. ft. (ca. 560 l/ha).
Treatments were applied at the following rates: • Aliette 4 oz/1000 sq. ft. (ca. 1.3 mL/m2) • Signature 4 oz/1000 sq. ft. (ca. 1.3 mL/m2) • Signature 8 oz/1000 sq. ft. (ca. 2.5 mL/m2) • Pigment 6.8 g/1000 sq. ft. (0.73 kg/ha) • Pigment 13.6 g/1000 sq. ft. (1.5 kg/ha)

Pigment Green 7
Height soil to collar (avg, cm) ([1]; pigment concentration 1 g/gal): 58 cm
Leaf width (avg, cm) ([1]; pigment concentration 1 g/gal): 5.2 cm
Stem diameter (avg, cm) ([1]; pigment concentration 1 g/gal): 1.04 cm
Chlorophyl ([1]; pigment concentration 1 g/gal): 141
Total height (avg, cm) ([1]; pigment concentration 1 g/gal): 145 cm
Distance between collars (avg, cm) ([1]; pigment concentration 1 g/gal): 4.9 cm
Net photosynthesis ([1]; pigment concentration 1 g/gal): 13.0 μmol m−2s−1 of CO2
Height soil to collar (avg, cm) ([1]; pigment concentration 8 g/gal): 59 cm
Leaf width (avg, cm) ([1]; pigment concentration 8 g/gal): 5.6 cm
Stem diameter (avg, cm) ([1]; pigment concentration 8 g/gal): 0.99 cm
Chlorophyl ([1]; pigment concentration 8 g/gal): 122
Total height (avg, cm) ([1]; pigment concentration 8 g/gal): 148 cm
Distance between collars (avg, cm) ([1]; pigment concentration 8 g/gal): 5.5 cm
Net photosynthesis ([1]; pigment concentration 8 g/gal): 12.8 μmol m−2s−1 of CO2
Height soil to collar (avg, cm) ([1]; pigment concentration 16 g/gal): 55 cm
Leaf width (avg, cm) ([1]; pigment concentration 16 g/gal): 5.2 cm
Stem diameter (avg, cm) ([1]; pigment concentration 16 g/gal): 1.01 cm
Chlorophyl ([1]; pigment concentration 16 g/gal): 115
Total height (avg, cm) ([1]; pigment concentration 16 g/gal): 137 cm
Distance between collars (avg, cm) ([1]; pigment concentration 16 g/gal): 5.7 cm
Net photosynthesis ([1]; pigment concentration 16 g/gal): 13.6 μmol m−2s−1 of CO2
Height soil to collar (avg, cm) ([1]; pigment concentration 32 g/gal): 54 cm
Leaf width (avg, cm) ([1]; pigment concentration 32 g/gal): 5.6 cm
Stem diameter (avg, cm) ([1]; pigment concentration 32 g/gal): 1.00 cm
Chlorophyl ([1]; pigment concentration 32 g/gal): 132
Total height (avg, cm) ([1]; pigment concentration 32 g/gal): 132 cm
Distance between collars (avg, cm) ([1]; pigment concentration 32 g/gal): 6.0 cm
Net photosynthesis ([1]; pigment concentration 32 g/gal): 13.3 μmol m−2s−1 of CO2
Shoot growth rate in canopy height [2]: higher with application of Signature fungicide and Pigment Green 7 than with application of Aliette fungicide and water
Carotenoids content [3]: higher with application of Signature fungicide and Pigment Green 7 than with application of Aliette fungicide and water
Photochemical efficiency (Fv/Fm) [4]: highest
Canopy biomass (dry weight) [5]: higher with application of Signature fungicide and Pigment Green 7 than with application of Aliette fungicide and water
Roots biomass (dry weight) [5]: higher with application of Signature fungicide and Pigment Green 7 than with application of Aliette fungicide and water
Chlorophyll content (fresh weight basis) ([6]; plants with pretreatment): highest
Chlorophyll content (fresh weight basis) ([6]; plants without pretreatment): higher with application of Signature fungicide and Pigment Green 7 than with application of Aliette fungicide
Color rating (visual, scale 1-9) versus untreated check [7]: significantly different than the untreated check
Tiller density, difference among applications [8]: no significant difference
Color rating versus untreated check [9]: significantly different than the untreated check
